According to ChEMBL document CHEMBL3217457, “Carbazolepyrrolo[2,1-c][1,4]benzodiazepine conjugates: design, synthesis, and biological evaluation” (Medchemcomm, 2011):

Assays:
PC-3 = assay: Growth inhibition of human PC3 cells; format: functional
A549 = assay: Growth inhibition of human A549 cells; format: functional
KB = assay: Growth inhibition of human KB cells; format: functional
[1] = Growth inhibition of human Gurav cells; format: functional
A2780 = assay: Growth inhibition of human A2780 cells; format: functional
SiHa = assay: Growth inhibition of human SiHa cells; format: functional
ZR-75-1 = assay: Growth inhibition of human ZR-75-1 cells; format: functional
Calf thymus DNA = assay: Binding affinity to calf thymus DNA assessed as change in melting temperature at compound to DNA ratio of 1:5 after 18 hrs by thermal denaturation analysis; format: nucleic-acid assay; conditions: Bos taurus
HOP-62 = assay: Growth inhibition of human HOP62 cells; format: functional
COLO 205 = assay: Growth inhibition of human COLO205 cells; format: functional
MCF7 [2] = assay: Growth inhibition of human MCF7 cells; format: functional
MCF7 [3] = assay: Cell cycle arrest in human MCF7 cells assessed as accumulation at G0 phase at 4 uM after 24 hrs by propidium iodide staining based flow cytometry (reference value: 2.77%); format: functional
MCF7 [4] = assay: Cell cycle arrest in human MCF7 cells assessed as accumulation at G1 phase at 4 uM after 24 hrs by propidium iodide staining based flow cytometry (reference value: 57.98%); format: functional
MCF7 [5] = assay: Cell cycle arrest in human MCF7 cells assessed as accumulation at S phase at 4 uM after 24 hrs by propidium iodide staining based flow cytometry (reference value: 14.30%); format: functional
MCF7 [6] = assay: Cell cycle arrest in human MCF7 cells assessed as accumulation at G2/M phase at 4 uM after 24 hrs by propidium iodide staining based flow cytometry (reference value: 24.95%); format: functional
MCF7 [7] = assay: Cell cycle arrest in human MCF7 cells assessed as accumulation at G0/G1 phase at 4 uM after 24 hrs by propidium iodide staining based flow cytometry (reference value: 60.75%); format: functional

SMILES	GI50 (PC-3) [nM]	GI50 (A549) [nM]	GI50 (KB) [nM]	GI50 [1] [nM]	GI50 (A2780) [nM]	GI50 (SiHa) [nM]	GI50 (ZR-75-1) [nM]	ΔTm (Calf thymus DNA) [°C]	GI50 (HOP-62) [nM]	GI50 (COLO 205) [nM]	GI50 (MCF7 [2]) [nM]	Activity (MCF7 [3]) [%]	Activity (MCF7 [4]) [%]	Activity (MCF7 [5]) [%]	Activity (MCF7 [6]) [%]	Activity (MCF7 [7]) [%]
COc1cc2c(cc1OCCCCN1CCN(CCCn3c4ccccc4c4ccccc43)CC1)N=C[C@@H]1CCCN1C2=O	140	140	160	150	140	160	160	7.9	110	170	150					
COc1cc2c(cc1OCCCCn1c3ccccc3c3ccccc31)N=C[C@@H]1CCCN1C2=O		1920	1870	1600	1570	1700	1810	3.5	1930	1700	2210					
COc1cc2c(cc1OCCCCN1CCN(CCCCn3c4ccccc4c4ccccc43)CC1)N=C[C@@H]1CCCN1C2=O	100	130	150	170	160	150	150	8.4	80	160	120					
COc1cccc2c1C(=O)c1c(O)c3c(c(O)c1C2=O)C[C@@](O)(C(=O)CO)C[C@@H]3O[C@H]1C[C@H](N)[C@H](O)[C@H](C)O1 [DOXORUBICIN]	1830		170	160	160	170			140	140	170					
COc1ccc(-c2ccc3c(c2)c2cc(-c4ccc(OC)cc4)ccc2n3CCCN2CCN(CCCOc3cc4c(cc3OC)C(=O)N3CCC[C@H]3C=N4)CC2)cc1	120	130	110	120	10	120	130	7.2	100	80	40					
COc1cc2c(cc1O)N=C[C@@H]1CCCN1C2=O	200	160	170	170	140	170	2340		150	110	170	3.95	63.79	12.2	20.07	67.74
COc1ccc(-c2ccc3c(c2)c2cc(-c4ccc(OC)cc4)ccc2n3CCCCOc2cc3c(cc2OC)C(=O)N2CCC[C@H]2C=N3)cc1	160	190	190		160	170		4.3	140	190	150	4.4	62.6	11.12	21.88	67
COc1ccc(-c2ccc3[nH]c4ccc(-c5ccc(OC)cc5)cc4c3c2)cc1												4.39	62.24	11.84	21.53	66.63
COc1cc2c(cc1OCCCN1CCN(CCCCn3c4ccccc4c4ccccc43)CC1)N=C[C@@H]1CCCN1C2=O	110	120	140	130	110	130	150	8.5	100	140	150					
COc1ccc(-c2ccc3c(c2)c2cc(-c4ccc(OC)cc4)ccc2n3CCCCCOc2cc3c(cc2OC)C(=O)N2CCC[C@H]2C=N3)cc1	150	160	170		140	170		5.9	120	180	140					
COc1cc2c(cc1OCCCCCCn1c3ccccc3c3ccccc31)N=C[C@@H]1CCCN1C2=O		1500	1950	1710	1700	1580	2140	4.7	1580	1620	1650					
COc1cc2c(cc1OCCCn1c3ccccc3c3ccccc31)N=C[C@@H]1CCCN1C2=O		1840	1870	1600	1210	1700	1890	4	1930	1680	1850					
COc1ccc(-c2ccc3c(c2)c2cc(-c4ccc(OC)cc4)ccc2n3CCCOc2cc3c(cc2OC)C(=O)N2CCC[C@H]2C=N3)cc1	160	180	180		150	170		4.8	110	170	130					
